Source: patent US9487510B2, “Substituted heterocyclic acetamides as kappa opioid receptor (KOR) agonists” (Dr. Reddy's Laboratories Ltd., priority 2012, dated 2016)

Target: human KOR receptor (Homo sapiens, UniProt P41145)
Assay: IP-One HTRF assay, potency of KOR agonists, dose-response in transiently transfected COS-7 cells
Assay type: cell-based

Sequence of human KOR receptor (P41145 whole entry): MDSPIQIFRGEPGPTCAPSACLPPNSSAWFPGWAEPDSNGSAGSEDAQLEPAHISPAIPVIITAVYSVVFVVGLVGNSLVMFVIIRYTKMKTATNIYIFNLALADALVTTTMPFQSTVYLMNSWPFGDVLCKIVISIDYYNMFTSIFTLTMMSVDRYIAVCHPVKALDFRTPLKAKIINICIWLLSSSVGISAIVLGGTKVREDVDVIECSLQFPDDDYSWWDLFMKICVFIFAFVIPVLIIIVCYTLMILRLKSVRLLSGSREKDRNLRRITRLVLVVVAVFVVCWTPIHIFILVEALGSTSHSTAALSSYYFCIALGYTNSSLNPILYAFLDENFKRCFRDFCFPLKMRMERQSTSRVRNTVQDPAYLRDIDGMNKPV

Compound | EC50 [nM]
CN(C(=O)Cc1ccc2c(c1)NC(=O)C2)[C@H](CN1CC[C@H](O)C1)c1cccc(-c2noc(C(F)(F)F)n2)c1 [Example 179, N-((S)-2-((S)-3-hydroxypyrrolidin-1-yl)-1-(3-(5-(trifluoromethyl)-1,2,4-oxadiazol-3-yl)phenyl)ethyl)-N-methyl-2-(2-oxoindolin-6-yl)acetamide] | ≤ 50
C#Cc1cccc([C@@H](CN2CC[C@H](O)C2)N(C)C(=O)Cc2ccc3c(c2)NC(=O)C3)c1 [Example 180, N-((S)-1-(3-ethynylphenyl)-2-((S)-3-hydroxypyrrolidin-1-yl)ethyl)-N-methyl-2-(2-oxoindolin-6-yl)acetamide] | ≤ 50
Cc1nc(-c2cccc([C@@H](CN3CC[C@H](O)C3)N(C)C(=O)Cc3ccc4c(c3)NS(=O)(=O)C4)c2)no1 [Example 181, 2-(2,2-dioxido-1,3-dihydrobenzo[c]isothiazol-6-yl)-N-((S)-2-((S)-3-hydroxypyrrolidin-1-yl)-1-(3-(5-methyl-1,2,4-oxadiazol-3-yl)phenyl)ethyl)-N-methylacetamide] | ≤ 50
C#Cc1cccc([C@@H](CN2CC[C@H](O)C2)N(C)C(=O)Cc2ccc3c(c2)NS(=O)(=O)C3)c1 [Example 182, 2-(2,2-dioxido-1,3-dihydrobenzo[c]isothiazol-6-yl)-N-((S)-1-(3-ethynylphenyl)-2-((S)-3-hydroxypyrrolidin-1-yl)ethyl)-N-methylacetamide] | ≤ 50
Cc1nc(-c2cccc([C@@H](CN3CC[C@H](O)C3)N(C)C(=O)Cc3ccc4sc(=O)[nH]c4c3)c2)no1 [Example 183, N-((S)-2-((S)-3-hydroxypyrrolidin-1-yl)-1-(3-(5-methyl-1,2,4-oxadiazol-3-yl)phenyl)ethyl)-N-methyl-2-(2-oxo-2,3-dihydrobenzo[d]thiazol-5-yl)acetamide] | ≤ 50
CN(C(=O)Cc1ccc2sc(=O)[nH]c2c1)[C@H](CN1CC[C@H](O)C1)c1cccc(-c2noc(C(F)(F)F)n2)c1 [Example 184, N-((S)-2-((S)-3-hydroxypyrrolidin-1-yl)-1-(3-(5-(trifluoromethyl)-1,2,4-oxadiazol-3-yl)phenyl)ethyl)-N-methyl-2-(2-oxo-2,3-dihydrobenzo[d]thiazol-5-yl)acetamide] | ≤ 50
CN(C(=O)Cc1ccc2c(c1)NC(=O)C2)[C@H](CN1CC[C@H](O)C1)c1cccc(-c2ncon2)c1 [Example 185, N-((S)-1-(3-(1,2,4-oxadiazol-3-yl)phenyl)-2-((S)-3-hydroxypyrrolidin-1-yl)ethyl)-N-methyl-2-(2-oxoindolin-6-yl)acetamide 2,2,2-trifluoroacetate] | ≤ 50
CN(C(=O)Cc1ccc2c(c1)NS(=O)(=O)C2)[C@H](CN1CC[C@H](O)C1)c1cccc(-c2ncon2)c1 [Example 186, N-((S)-1-(3-(1,2,4-oxadiazol-3-yl)phenyl)-2-((S)-3-hydroxypyrrolidin-1-yl)ethyl)-2-(2,2-dioxido-1,3-dihydrobenzo[c]isothiazol-6-yl)-N-methylacetamide] | ≤ 50
CN(C(=O)Cc1ccc2c(c1)NS(=O)(=O)C2)[C@H](CN1CC[C@H](O)C1)c1cccc(-c2noc(C(F)(F)F)n2)c1 [Example 187, 2-(2,2-dioxido-1,3-dihydrobenzo [c]isothiazol-6-yl)-N-((S)-2-((S)-3-hydroxypyrrolidin-1-yl)-1-(3-(5-(trifluoromethyl)-1,2,4-oxadiazol-3-yl)phenyl)ethyl)-N-methylacetamide 2,2,2-trifluoroacetate] | ≤ 50
CCN(CC)C(=O)c1cccc([C@@H](CN2CC[C@H](O)C2)N(C)C(=O)Cc2ccc3sc(=O)[nH]c3c2)c1 [Example 188, N,N-diethyl-3-((S)-2-((S)-3-hydroxypyrrolidin-1-yl)-1-(N-methyl-2-(2-oxo-2,3-dihydrobenzo[d]thiazol-5-yl)acetamido)ethyl)benzamide] | ≤ 50
CN(C(=O)Cc1ccc2sc(=O)[nH]c2c1)[C@H](CN1CC[C@H](O)C1)c1cccc(-c2ncon2)c1 [Example 189, N-((S)-1-(3-(1,2,4-oxadiazol-3-yl)phenyl)-2-((S)-3-hydroxypyrrolidin-1-yl)ethyl)-N-methyl-2-(2-oxo-2,3-dihydrobenzo[d]thiazol-5-yl)acetamide 2,2,2-trifluoroacetate] | ≤ 50
CN(C(=O)Cc1ccc2ncc(=O)[nH]c2c1)[C@H](CN1CC[C@H](O)C1)c1cccc(-c2ncon2)c1 [Example 190, N-((S)-1-(3-(1,2,4-oxadiazol-3-yl)phenyl)-2-((S)-3-hydroxypyrrolidin-1-yl)ethyl)-N-methyl-2-(3-oxo-3,4-dihydroquinoxalin-6-yl)acetamide 2,2,2-trifluoroacetate] | ≤ 50
CN(C(=O)Cc1ccc2sc(=O)[nH]c2c1)[C@H](CN1CC[C@H](O)C1)c1cccc(-c2ncc[nH]2)c1 [Example 191, N-((S)-1-(3-(1H-imidazol-2-yl)phenyl)-2-((S)-3-hydroxypyrrolidin-1-yl)ethyl)-N-methyl-2-(2-oxo-2,3-dihydrobenzo[d]thiazol-5-yl)acetamide] | ≤ 50
CN(C(=O)Cc1ccc2sc(=O)[nH]c2c1)[C@H](CN1CC[C@H](O)C1)c1cccc(-c2nccs2)c1 [Example 192, N-((S)-2-((S)-3-hydroxypyrrolidin-1-yl)-1-(3-(thiazol-2-yl)phenyl)ethyl)-N-methyl-2-(2-oxo-2,3-dihydrobenzo[d]thiazol-5-yl)acetamide] | 101 to 1000
Cc1nc(-c2cccc([C@@H](CN3CC[C@H](O)C3)N(C)C(=O)Cc3ccc4ncc(=O)[nH]c4c3)c2)no1 [Example 194, N-((S)-2-((S)-3-hydroxypyrrolidin-1-yl)-1-(3-(5-methyl-1,2,4-oxadiazol-3-yl)phenyl)ethyl)-N-methyl-2-(3-oxo-3,4-dihydroquinoxalin-6-yl)acetamide] | ≤ 50
CN(C(=O)Cc1ccc2c(c1)NS(=O)(=O)C2)[C@H](CN1CC[C@H](O)C1)c1cccc(C(=O)NCC(F)(F)F)c1 [Example 195, 3-((S)-1-(2-(2,2-dioxido-1,3-dihydrobenzo[c]isothiazol-6-yl)-N-methylacetamido)-2-((S)-3-hydroxypyrrolidin-1-yl)ethyl)-N-(2,2,2-trifluoroethyl)benzamide] | ≤ 50
CN(C(=O)Cc1ccc2ncc(=O)[nH]c2c1)[C@H](CN1CC[C@H](O)C1)c1cccc(C(=O)NCC(F)(F)F)c1 [Example 196, 3-((S)-2-((S)-3-hydroxypyrrolidin-1-yl)-1-(N-methyl-2-(3-oxo-3,4-dihydroquinoxalin-6-yl)acetamido)ethyl)-N-(2,2,2-trifluoroethyl)benzamide] | ≤ 50
CN(C(=O)Cc1ccc2c(c1)NC(=O)C2)[C@H](CN1CC[C@H](O)C1)c1cc(F)cc(C#N)c1 [Example 197, N-((S)-1-(3-cyano-5-fluorophenyl)-2-((S)-3-hydroxypyrrolidin-1-yl)ethyl)-N-methyl-2-(2-oxoindolin-6-yl)acetamide] | 51 to 100
CN(C(=O)Cc1ccc2c(c1)NC(=O)C2)[C@H](CN1CC[C@H](O)C1)c1cccc(-c2ncc[nH]2)c1 [Example 198, N-((S)-1-(3-(1H-imidazol-2-yl)phenyl)-2-((S)-3-hydroxypyrrolidin-1-yl)ethyl)-N-methyl-2-(2-oxoindolin-6-yl)acetamide 2,2,2-trifluoroacetate] | ≤ 50
CN(C(=O)Cc1ccc2c(c1)NS(=O)(=O)C2)[C@H](CN1CC[C@H](O)C1)c1cc(F)cc(C#N)c1 [Example 199, N-((S)-1-(3-cyano-5-fluorophenyl)-2-((S)-3-hydroxypyrrolidin-1-yl)ethyl)-2-(2,2-dioxido-1,3-dihydrobenzo[c]isothiazol-6-yl)-N-methylacetamide] | ≤ 50
CN(C(=O)Cc1ccc2ncc(=O)[nH]c2c1)[C@H](CN1CC[C@H](O)C1)c1cc(F)cc(C#N)c1 [Example 200, N-((S)-1-(3-cyano-5-fluorophenyl)-2-((S)-3-hydroxypyrrolidin-1-yl)ethyl)-N-methyl-2-(3-oxo-3,4-dihydroquinoxalin-6-yl)acetamide] | ≤ 50
C#Cc1cccc([C@@H](CN2CC[C@H](O)C2)N(C)C(=O)Cc2ccc3c(c2)NC(=O)CS3(=O)=O)c1 [Example 201, 2-(1,1-dioxido-3-oxo-3,4-dihydro-2H-benzo[b][1,4]thiazin-6-yl)-N-((S)-1-(3-ethynylphenyl)-2-((S)-3-hydroxypyrrolidin-1-yl)ethyl)-N-methylacetamide] | ≤ 50
CN(C(=O)Cc1ccc2c(c1)NS(=O)(=O)C2)[C@H](CN1CC[C@H](O)C1)c1cccc(-c2ncc[nH]2)c1 [Example 202, N-((S)-1-(3-(1H-imidazol-2-yl)phenyl)-2-((S)-3-hydroxypyrrolidin-1-yl)ethyl)-2-(2,2-dioxido-1,3-dihydrobenzo[c]isothiazol-6-yl)-N-methylacetamide] | 51 to 100
CN(C(=O)Cc1ccc2c(c1)NS(=O)(=O)C2)[C@H](CN1CC[C@H](O)C1)c1cccc(C#N)c1 [Example 203, N-((S)-1-(3-cyanophenyl)-2-((S)-3-hydroxypyrrolidin-1-yl)ethyl)-2-(2,2-dioxido-1,3-dihydrobenzo[c]isothiazol-6-yl)-N-methylacetamide] | ≤ 50
CCC#Cc1cccc([C@@H](CN2CC[C@H](O)C2)N(C)C(=O)Cc2ccc3c(c2)NC(=O)C3)c1 [Example 204, N-((S)-1-(3-(but-1-yn-1-yl)phenyl)-2-((S)-3-hydroxypyrrolidin-1-yl)ethyl)-N-methyl-2-(2-oxoindolin-6-yl)acetamide] | ≤ 50
CCC#Cc1cccc([C@@H](CN2CC[C@H](O)C2)N(C)C(=O)Cc2ccc3sc(=O)[nH]c3c2)c1 [Example 205, N-((S)-1-(3-(but-1-yn-1-yl)phenyl)-2-((S)-3-hydroxypyrrolidin-1-yl)ethyl)-N-methyl-2-(2-oxo-2,3-dihydrobenzo[d]thiazol-5-yl)acetamide] | ≤ 50
CCC#Cc1cccc([C@@H](CN2CC[C@H](O)C2)N(C)C(=O)Cc2ccc3ncc(=O)[nH]c3c2)c1 [Example 206, N-((S)-1-(3-(but-1-yn-1-yl)phenyl)-2-((S)-3-hydroxypyrrolidin-1-yl)ethyl)-N-methyl-2-(3-oxo-3,4-dihydroquinoxalin-6-yl)acetamide] | ≤ 50
CN(C)C(=O)c1cccc([C@@H](CN2CC[C@H](O)C2)N(C)C(=O)Cc2ccc3c(c2)NC(=O)C3)c1 [Example 207, 3-((S)-2-((S)-3-hydroxypyrrolidin-1-yl)-1-(N-methyl-2-(2-oxoindolin-6-yl)acetamido)ethyl)-N,N-dimethylbenzamide] | ≤ 50
